Results as given in patent US20240216383A1, “FORMULATIONS AND METHODS FOR TREATING ERECTILE DYSFUNCTION” (Strategic Drug Solutions, Inc., priority 2020, published 2024).
Values after ≈ are worked out from the molar mass of the structure shown. Where a name gives a salt, the structure may show the parent alone. Read-outs that look alike come from different tables or passages of the source. Values belong to the compound of their own block, whether it stands above or below them.

Assays:
[1] = Saturated solubility of sildenafil in water and organic-aqueous solvents (shake flask, HPLC); assay type: physicochemical; conditions: for solubility: water, thermodynamic from solid
Excerpt: Afterwards the solution was filtered using the VWR 0.2 mcron filter.

[2] = cited from earlier work; for half-life: oral, terminal half-life
[3] = cited from earlier work
[4] = cited from earlier work; remark: listed apart in the source
[5] = Saturated solubility of vardenafil API in water and organic-aqueous solvents (shake flask, HPLC); assay type: physicochemical; conditions: for solubility: water, pH 4, aqueous buffer, thermodynamic from solid, pH4
Procedure: For screening of various organic solvents, the solubility of vardenafil API in different % ethanol-aqueous mixtures was first investigated and compared to solubility in pure water. As disclosed herein, the solutions were prepared by the “shake flask” method. Briefly, increasing amounts of vardenafil API were added to different mixtures until saturation. The saturated organic-aqueous mixtures were adjusted for pH (at the range pH 3.5-7.5) with the use of a pH meter. The saturated solution was shaken slowly with a magnetic stirrer at room temperature or shaken rapidly several times a day for 24 hours or longer, up to 3 days. Afterwards, the solutions were filtered using the VWR 0.2 micron filter. The filtrate was then used for inspection of clarity and concentration was determined by HPLC. In addition, the saturated solubility of vardenafil various organic-aqueous solution, e.g., in glycerin (glycerol), polyethylene glycol 400 (PEG) and combination of two organic solvents were investigated. Vardenafil solubility in some other representative organic-aqueous solutions were also investigated.
The standard curves were prepared in MeOH and mixed with PBS so that the analytical matrices were the same.

[6] = Vardenafil permeability (Papp) and flux (Jss) by PAMPA; assay type: in vitro ADME
Excerpt: As disclosed herein, the permeability of vardenafil API in different solvents at room temperature and atmospheric pressure was screened using in vitro PAMPA. The PAMPA predicts passive absorption of drugs and is suitable for studies with many solutions including ethanol (up to concentration of 30%)(22-24). The unit of measurement is the apparent permeability (Papp) obtained at steady state, expressed as cm/second. Also another associated measurement is the maximum flux (Jss) at a particular pH, expressed as the quantity of drug across the unit area per sec, is calculated from the Papp and saturated solubility. […]
Apparent permeability coefficient (Papp) determination, expressed as cm/sec, was calculated based on the following equation at steady state (24) where • VD=volume in donor chamber • VA=volume in acceptor chamber • A=effective area of the membrane (PAMPA: 0.3 cm^2) • t=duration of the permeability study • CA=drug concentration in the acceptor well at the end of the study • CE=equilibrium concentration in both wells, and […]
Steady state flux (Jss). The Jss, expressed as ug/sec/cm^2, was calculated based on the following equation where • CD=loading concentration in the donor chamber […]

Compound: CCCc1nn(C)c2c(=O)[nH]c(-c3cc(S(=O)(=O)N4CCN(C)CC4)ccc3OCC)nc12 [sildenafil]
aqueous solubility ([1]; sildenafil, pHmax 4.2): 3540 µg/mL (≈ 7.46 mM)
solubility ([1]; pH 4, aqueous buffer, read-out: aqueous saturated solubility): < 5000 µg/mL
solubility ([1]; pH 4.55, aqueous buffer, read-out: aqueous solubility): 3340 µg/mL (≈ 7.04 mM)
absolute bioavailability ([2]; oral administration): about 41%
mean time (Tmax) for maximum plasma concentration ([2]; oral administration): about 60 min
half-life [2]: about 4 h
log P [3]: 2.7
pKa ([3]; vardenafil: 7.15 mostly basic, 9.86 mostly acidic): 7.2
solubility in water ([4]; pH 3-4): about 7.0 mg/ml
solubility in water ([4]; pH 5): ~2100 µg/mL (≈ 4.42 mM)
solubility in water ([4]; pH 7): ~30 µg/mL (≈ 0.0632 mM)

Compound: CCCc1nc(C)c2c(=O)[nH]c(-c3cc(S(=O)(=O)N4CCNCC4)ccc3OCC)nn12 [MI metabolite]
share of total pharmacologic activity ([2]; metabolite of vardenafil): about 7%

time until precipitation ([5]; solubilized in 12% alcohol): ≤ 24 h
solubility ([5]; read-out: mean saturated solubility in water): < 20000 µg/mL
Compound: CCCc1nc(C)c2c(=O)[nH]c(-c3cc(S(=O)(=O)N4CCN(CC)CC4)ccc3OCC)nn12 [vardenafil API, vardenafil hydrochloride trihydrate]

solubility ([5]; read-out: V(ssol)pHmax, aqueous saturated solubility at pHmax): 18200 µg/mL
JsspHmax ([6]; vardenafil aqueous, pH4): 7.74 E-05 ug/s/cm^2
Jss(ref) ([6]; vardenafil, Solmin 20 mg/ml, IN dose 2 mg/nostril, pHmax pH4): 8.5E-05 ug/s/cm^2
Compound: CCCc1nc(C)c2c(=O)[nH]c(-c3cc(S(=O)(=O)N4CCN(CC)CC4)ccc3OCC)nn12 [vardenafil]
absolute bioavailability ([2]; oral administration): about 15%
mean time (Tmax) for maximum plasma concentration ([2]; oral administration): about 60 min
log P [3]: 3.64
solubility ([4]; pH 1): about 8.8 g/L
solubility ([4]; pH 2): ~3000 µg/mL (≈ 6.14 mM)
solubility ([4]; pH 3): ~1600 µg/mL (≈ 3.27 mM)
aqueous solubility ([4]; pH 4-7): less than 2 mg/ml
solubility ([4]; pH 4): ~880 µg/mL (≈ 1.8 mM)
solubility ([4]; pH 5): ~160 µg/mL (≈ 0.327 mM)
solubility ([4]; pH 6): ~19 µg/mL (≈ 0.0389 mM)

Compound: CN1CC(=O)N2[C@H](c3ccc4c(c3)OCO4)c3[nH]c4ccccc4c3C[C@@H]2C1=O [tadalafil]
mean time (Tmax) for maximum plasma concentration ([2]; following a single dose): about 2 h
absolute bioavailability ([2]; oral administration): ≤ 80%
half-life [2]: about 17.5 h
